Drawing on ChEMBL document CHEMBL3352391, “Trichormamides A and B with Antiproliferative Activity from the Cultured Freshwater Cyanobacterium Trichormus sp. UIC 10339” (J Nat Prod, 2014), this text covers IC50 for 1 compound.

For orientation: IC50 means the concentration needed to halve the response being measured. Read a low IC50 as inhibition by little substance.

Assay [1] has as its system MDA-MB-435. The assay is described as follows: Antiproliferative activity against human MDA-MB-435 cells after 72 hrs by MTS assay. The conditions noted are these: MDA-MB-435, 72 h. The assay is classed as functional, cell-based.
Assay [2] deals with HT-29. In words: Antiproliferative activity against human HT-29 cells after 72 hrs by MTS assay. The assay is classed as functional, cell-based. Particulars: HT-29, 72 h.

The structures appear in SMILES notation.

For `CCCCCCC[C@@H]1CC(=O)N[C@@H]([C@@H](C)CC)C(=O)N[C@H]([C@@H](O)C(C)C)C(=O)N[C@@H](CCO)C(=O)N[C@H]([C@@H](O)C(C)C)C(=O)N[C@@H](CCC(N)=O)C(=O)N(C)[C@@H]([C@@H](C)CC)C(=O)N[C@H](CO)C(=O)N[C@@H]([C@@H](C)O)C(=O)N2CCC[C@H]2C(=O)N[C@H](Cc2ccc(O)cc2)C(=O)N[C@@H]([C@@H](C)O)C(=O)N1`, the IC50 in assay [1] was 0.8 µM; in assay [2] it was 1.5 µM.
